Results as given in publication PMC3409651 (Journal of agricultural and food chemistry, 2012).

Key:
[1] = Chemical stability of the tested compounds in potassium phosphate buffer; type: physicochemical; settings: 50 mM potassium phosphate buffer (pH 7.4) at 37°C with 0.1% vitamin C
[2] = tested on: Sult in FVB mouse liver S9 fraction; assay: Sult activity measurements; type: in vitro ADME
Sult = Sult activity measurements; type: in vitro ADME, mouse; settings: male, FVB, mouse, liver S9 fraction, pH 7.4
Sult and Ugt = assay: Sult-Ugt co-reaction system; type: in vitro ADME; settings: male, FVB, mouse, liver S9 fraction
Ugt = Ugt activity measurements; settings: male, FVB, mouse, liver S9 fraction, pH 7.4
[3] = tested on: SULTs in human liver and duodenum S9 fractions; settings: cited from earlier work
[4] = tested on: Ugt in FVB mouse liver S9 fraction; settings: male, 10 µM, pH 7.4
[5] = 10 µM substrate, Sult single reaction, FVB mice liver S9 fraction, n=3

time stable in buffer (chemical stability) [1] [min] | SMILES | sulfation rate [2, 5] | further results
30 to 90 | O=c1c(O)c(-c2ccc(O)cc2)oc2ccccc12 [3,4’-diHF, 3,4’-dihydroxyflavone] | – | –
30 to 90 | O=c1cc(-c2cccc(O)c2)oc2ccccc12 [3’-HF, 3’-hydroxyflavone] | 0.0312 ± 0.0095 nmol per min per mg of protein | –
30 to 90 | O=c1cc(-c2ccccc2O)oc2ccccc12 [2’-HF, 2’-hydroxyflavone] | 0.0719 ± 0.0030 nmol per min per mg of protein | –

Continued, compound first:

SMILES | time stable in buffer (chemical stability) [1] [min] | sulfation rate [2, 5] | further results
O=c1cc(-c2ccc(O)cc2)oc2ccccc12 [4’-HF, 4’-hydroxyflavone] | 30 to 90 | 0.0793 ± 0.0031 nmol per min per mg of protein | –
O=c1cc(-c2ccccc2)oc2cc(O)c(O)cc12 [6,7-diHF, 6,7-dihydroxyflavone] | – | – | half-life at 10 µM (Sult): 244 ± 36.8 min; half-life at 10 µM (Sult and Ugt): 21.2 ± 2.03 min; half-life at 10 µM (Ugt): 26.8 ± 1.32 min
O=c1cc(-c2ccccc2)oc2cc(O)ccc12 [7-HF, 7-hydroxyflavone] | 30 to 90 | 0.0998 ± 0.0061 nmol per min per mg of protein | sulfation by SULTs (in words) [3]: sulfated
O=c1cc(-c2ccccc2)oc2cc(O)cc(O)c12 [5,7-diHF, 5,7-dihydroxyflavone] | – | – | formation rate of 7-O-sulfate ([2]; male, FVB, mouse, 5 µM, pH 7.4): 0.0387 ± 0.0025 nmol per min per mg of protein; glucuronidation rate, 5-O-G [4]: 0.00 ± 0.00 nmol per min per mg of protein; glucuronidation rate, 7-O-G [4]: 1.0763 ± 0.0399 nmol per min per mg of protein
O=c1c(O)c(-c2ccccc2)oc2ccccc12 [3-HF, 3-hydroxyflavone] | 30 to 90 | 0.00 ± 0.00 nmol per min per mg of protein | sulfation by FVB mice liver S9 fraction (in words) ([2]; 5, 10 and 40 µM substrate, Sult single reaction): not sulfated
O=c1cc(-c2ccccc2)oc2cccc(O)c12 [5-HF, 5-hydroxyflavone] | – | – | sulfation rate ([2]; male, FVB, mouse, 10 µM, pH 7.4): 0.0524 ± 0.0019 nmol per min per mg of protein
O=c1cc(-c2ccccc2)oc2ccc(O)cc12 [6-HF, 6-hydroxyflavone] | 30 to 90 | 0.0211 ± 0.0002 nmol per min per mg of protein | –
